Like-named read-outs stand apart in the source and are kept apart here.
Key:
naïve human CD8 T cells = assay: CellTiter-Glo CD8 T cell proliferation assay; type: cell-based; settings: Homo sapiens, read-out: CD8 GLO Normalized EC50
Procedure: Assay 4: CellTiter-Glo CD8 T Cell Proliferation Assay
Frozen naïve human CD8 T cells were thawed in RPMI+10% FBS, incubated for 2 h in 37° C., and counted. The 384-well tissue culture plate was coated overnight at 4° C. with 20 μl anti-human CD3 at 0.1 μg/mL in plain RPMI, which was removed off the plate before 20 k/40 μL CD8 T cells with 0.5 μg/ml soluble anti-human CD28 were added to each well. The compounds were echoed to the cell plate immediately after the cells were plated. After 72 h incubation at 37° C. incubator, 10 μL CellTiter-glo reagent (Promega catalog number G7570) was added to each well. The plate was vigorously shaken for 5 mins, incubated at room temperature for another 15 mins and read on Envision for CD8 T cell proliferation. In analysis, 0.1 μg/mL anti-CD3 and 0.5 μg/mL anti-CD28 stimulated CD8 T cell signal was background.

[1] = system: Human venous whole blood (IFN-γ); assay: Human whole blood IFN-γ assay; type: cell-based
Procedure: Assay 10: Human Whole Blood IFN-γ Assay
Human venous whole blood (22.5 μL per well), obtained from healthy donors, was pre-treated with compounds for one hour at 37° C. in a humidified 95% air/5% CO2 incubator. The blood was stimulated with 2.5 μL anti-human CD3 and anti-CD28 mAb at a final concentration of 1 μg/mL each for 24 hours at 37° C. IFN-γ in the supernatants was measured using AlphLISA kit (Cat #AL217).

Human DGKα(9-727) = Human DGKα(9-727) (Homo sapiens (Human), UniProt P23743); assay: biochemical; settings: Table A; liposome (LIPGLO) assay; read-out: DGKα
Chain of Human DGKα(9-727) (P23743 whole entry, looked up): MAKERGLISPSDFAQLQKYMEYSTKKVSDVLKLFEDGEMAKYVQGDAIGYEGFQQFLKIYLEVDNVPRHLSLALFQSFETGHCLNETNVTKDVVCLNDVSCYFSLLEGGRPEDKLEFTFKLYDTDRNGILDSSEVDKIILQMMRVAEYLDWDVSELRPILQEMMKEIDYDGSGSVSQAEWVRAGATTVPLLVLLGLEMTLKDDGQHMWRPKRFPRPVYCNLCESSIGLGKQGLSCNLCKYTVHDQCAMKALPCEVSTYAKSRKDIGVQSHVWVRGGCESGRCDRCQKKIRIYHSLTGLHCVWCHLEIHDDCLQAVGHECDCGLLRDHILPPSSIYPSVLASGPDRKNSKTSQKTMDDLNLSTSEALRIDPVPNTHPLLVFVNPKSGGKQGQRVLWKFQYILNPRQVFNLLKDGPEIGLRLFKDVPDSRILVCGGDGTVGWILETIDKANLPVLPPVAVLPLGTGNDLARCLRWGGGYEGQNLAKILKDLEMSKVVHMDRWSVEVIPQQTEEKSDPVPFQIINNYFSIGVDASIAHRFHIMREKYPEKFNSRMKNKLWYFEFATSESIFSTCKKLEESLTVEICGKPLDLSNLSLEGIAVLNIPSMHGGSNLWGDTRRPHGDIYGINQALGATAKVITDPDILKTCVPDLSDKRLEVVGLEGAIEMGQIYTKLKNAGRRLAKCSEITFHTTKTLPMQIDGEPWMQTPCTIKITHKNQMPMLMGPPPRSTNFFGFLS

[2] = system: human venous whole blood, CD8 positive population (pERK); assay: DGK human whole blood pERK assay; type: cell-based
In short: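 Heparinized whole blood from healthy donors preincubated with compound 1 hour at 37° C. Stimulation used anti-CD3 at 1 μg/mL final plus cross-linking goat anti-mouse IgG for 15 minutes. Flow cytometry scored percentage pERK-positive cells among CD8-positive cells.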

human DGKζ = human DGKζ (Homo sapiens (Human), UniProt Q13574); assay: biochemical; type: biochemical; settings: Table A; liposome (LIPGLO) assay; read-out: DGKζ
Chain of human DGKζ (Q13574 whole entry, looked up): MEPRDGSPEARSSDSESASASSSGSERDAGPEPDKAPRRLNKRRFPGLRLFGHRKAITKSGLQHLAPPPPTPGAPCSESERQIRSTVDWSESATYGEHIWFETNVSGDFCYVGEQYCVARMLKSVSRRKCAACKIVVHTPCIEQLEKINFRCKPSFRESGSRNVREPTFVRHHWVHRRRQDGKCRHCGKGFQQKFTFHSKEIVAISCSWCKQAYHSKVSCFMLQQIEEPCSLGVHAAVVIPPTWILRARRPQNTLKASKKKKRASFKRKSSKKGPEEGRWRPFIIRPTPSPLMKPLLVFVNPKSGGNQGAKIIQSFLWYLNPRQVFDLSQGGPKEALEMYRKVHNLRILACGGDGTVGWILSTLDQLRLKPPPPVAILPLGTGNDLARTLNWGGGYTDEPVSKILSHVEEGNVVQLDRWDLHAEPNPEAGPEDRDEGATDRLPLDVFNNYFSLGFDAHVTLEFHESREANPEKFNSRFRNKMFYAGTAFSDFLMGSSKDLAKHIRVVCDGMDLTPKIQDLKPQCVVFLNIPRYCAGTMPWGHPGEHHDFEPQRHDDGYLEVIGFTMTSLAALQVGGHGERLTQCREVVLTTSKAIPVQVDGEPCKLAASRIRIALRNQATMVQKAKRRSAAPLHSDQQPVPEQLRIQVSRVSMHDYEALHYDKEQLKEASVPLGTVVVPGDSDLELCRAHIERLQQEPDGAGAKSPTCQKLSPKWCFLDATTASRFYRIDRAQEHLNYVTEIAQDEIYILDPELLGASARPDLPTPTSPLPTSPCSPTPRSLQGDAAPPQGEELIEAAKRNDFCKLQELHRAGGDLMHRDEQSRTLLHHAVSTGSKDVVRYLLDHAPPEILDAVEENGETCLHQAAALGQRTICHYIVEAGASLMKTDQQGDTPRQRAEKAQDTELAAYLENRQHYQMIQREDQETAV

DGKα = DGKα (Homo sapiens (Human), UniProt P23743); assay: biochemical; type: biochemical; settings: Table A; liposome (LIPGLO) assay; read-out: DGKα
Chain of DGKα (P23743 whole entry, looked up): as the sequence (P23743 whole entry, looked up) above

[3] = read-out: INFg Whole Blood, human whole blood IFN-γ
[4] = read-out: DGK HWB, human whole blood pERK
[5] = Homo sapiens, read-out: INFg Whole Blood, human whole blood IFN-γ
[6] = human whole blood pERK, read-out: DGK HWB
[7] = Homo sapiens, CD8 positive, human whole blood pERK, read-out: DGK HWB

Row | SMILES | EC50 (naïve human CD8 T cells) | IC50 (Human DGKα(9-727)) | IC50 (human DGKζ) | other results
1 | Cn1c(=O)c([N+](=O)[O-])c(N2CCC(Oc3cccc(F)c3)CC2)c2cc(F)ccc21 [Example 9, 6-fluoro-4-(4-(3-fluorophenoxy)piperidin-1-yl)-1-methyl-3-nitroquinolin-2(1H)-one] | 0.79 µM | – | – | –
2 | CC(C)Oc1ccc(OC2C[C@@H](C)N(c3nc(=O)n(C)c4ccc(C#N)nc34)C[C@H]2C)nc1 (single isomer, unassigned) [Example 245, (±)-Cis-(-4-((5-isopropoxypyridin-2-yl)oxy)-2,5-dimethylpiperidin-1-yl)-1-methyl-2-oxo-1,2-dihydropyrido[3,2-d]pyrimidine-6-carbonitrile] | – | 0.43 µM | 0.05 µM | EC50 [1, 3]: 0.41 µM; EC50 [2, 4]: 0.8 µM
3 | COc1ccc(C(F)(F)F)cc1OC1CCN(c2c([N+](=O)[O-])c(=O)n(C)c3ccc(F)cc23)CC1 [Example 8, 6-fluoro-4-(4-(2-methoxy-5-(trifluoromethyl)phenoxy)piperidin-1-yl)-1-methyl-3-nitroquinolin-2(1H)-one] | 0.32 µM | – | – | –
4 | CC(C)Oc1ccc(OC2C[C@@H](C)N(c3nc(=O)n(C)c4ccc(C#N)nc34)C[C@H]2C)nc1 (single isomer, unassigned) [Example 244, (±)-Cis-(-4-((5-isopropoxypyridin-2-yl)oxy)-2,5-dimethylpiperidin-1-yl)-1-methyl-2-oxo-1,2-dihydropyrido[3,2-d]pyrimidine-6-carbonitrile] | – | 0.32 µM | 0.92 µM | EC50 [1, 5]: 0.78 µM; EC50 [2, 4]: 3.1 µM
5 | CC1CN(c2cc(=O)n(C)c3ccc(C#N)nc23)CCC1N(C)C(=O)c1ccc(F)cc1 (single isomer, unassigned) [Example 284, N-(1-(6-Cyano-1-methyl-2-oxo-1,2-dihydro-1,5-naphthyridin-4-yl)-3-methylpiperidin-4-yl)-4-fluoro-N-methylbenzamide] | – | 23 µM | 120 µM | EC50 [2, 6]: 20 µM
6 | CC1CN(c2c(C#N)c(=O)n(C)c3ccc(C#N)nc23)CCC1N(C)Cc1ccc(F)cc1 (single isomer, unassigned) [Example 322, 8-(4-((4-Fluorobenzyl)(methyl)amino)-3-methylpiperidin-1-yl)-5-methyl-6-oxo-5,6-dihydro-1,5-naphthyridine-2,7-dicarbonitrile] | – | 6.8 µM | 78 µM | EC50 [2, 7]: 20 µM
7 | CC1CN(c2c(C#N)c(=O)n(C)c3ccc(C#N)nc23)CCC1N(C)Cc1ccc(F)cc1 (single isomer, unassigned) [Example 324, 8-(4-((4-Fluorobenzyl)(methyl)amino)-3-methylpiperidin-1-yl)-5-methyl-6-oxo-5,6-dihydro-1,5-naphthyridine-2,7-dicarbonitrile] | – | 130 µM | 130 µM | EC50 [2, 6]: 20 µM
8 | CC1CN(c2cc(=O)n(C)c3ccc(C#N)nc23)CCC1N(C)C(=O)c1ccc(F)cc1 (single isomer, unassigned) [Example 285, N-(1-(6-Cyano-1-methyl-2-oxo-1,2-dihydro-1,5-naphthyridin-4-yl)-3-methylpiperidin-4-yl)-4-fluoro-N-methylbenzamide] | – | 30 µM | 130 µM | EC50 [2, 6]: 20 µM
9 | Cn1c(=O)c([N+](=O)[O-])c(N2CCC(Oc3cccc(Cl)c3)CC2)c2cc(F)ccc21 [Example 7, 4-(4-(3-chlorophenoxy)piperidin-1-yl)-6-fluoro-1-methyl-3-nitroquinolin-2(1H)-one] | 2.3 µM | – | – | –
10 | CC[C@@H]1CN(c2cc(=O)n(C)c3ccc(C#N)nc23)CC[C@H]1Oc1cccc(C(C)(C)C)c1 (single isomer, unassigned) [Example 197] | – | 0.0054 µM | 0.25 µM | IC50 (DGKα): 0.011 µM; EC50 [1, 3]: 0.57 µM; EC50 ([2]; Homo sapiens, CD8 positive, read-out: DGK HWB, human whole blood pERK): 0.6 µM
11 | CC(C)Oc1ccc(OC2C[C@H](C)N(c3nc(=O)n(C)c4ccc(C#N)nc34)C[C@@H]2C)nc1 (mixture of isomers) [Example 246, (±)-Cis-(-4-((5-isopropoxypyridin-2-yl)oxy)-2,5-dimethylpiperidin-1-yl)-1-methyl-2-oxo-1,2-dihydropyrido[3,2-d]pyrimidine-6-carbonitrile] | – | 0.069 µM | 0.87 µM | EC50 [1, 5]: 0.45 µM; EC50 [2, 4]: 0.83 µM
12 | CC1CN(c2c(C#N)c(=O)n(C)c3ccc(C#N)nc23)CCC1N(C)Cc1ccc(F)cc1 (single isomer, unassigned) [Example 325, 8-(4-((4-Fluorobenzyl)(methyl)amino)-3-methylpiperidin-1-yl)-5-methyl-6-oxo-5,6-dihydro-1,5-naphthyridine-2,7-dicarbonitrile] | – | 49 µM | 50 µM | EC50 [2, 6]: 20 µM
13 | Cn1c(=O)c([N+](=O)[O-])c(N2CCC(Oc3cccc(C#N)c3)CC2)c2cc(F)ccc21 [Example 6, 3-((1-(6-fluoro-1-methyl-3-nitro-2-oxo-1,2-dihydroquinolin-4-yl)piperidin-4-yl)oxy)benzonitrile] | 10 µM | – | – | –
14 | CO[C@H]1CN(c2cc(=O)n(C)c3ccc(C#N)nc23)CC[C@@H]1Oc1ccc(OC(C)C)cn1 (single isomer, unassigned) [Example 269, (±)-trans-8-(4-((5-isopropoxypyridin-2-yl)oxy)-3-methoxypiperidin-1-yl)-5-methyl-6-oxo-5,6-dihydro-1,5-naphthyridine-2-carbonitrile] | – | 0.047 µM | 1.5 µM | EC50 [2, 7]: 2.1 µM
15 | CCC(C)(C)c1ccc(O[C@@H]2CCN(c3c(C#N)c(=O)n(C)c4ccc(C#N)nc34)C[C@H]2C)cc1 (single isomer, unassigned) [Example 231, 5-methyl-8-(trans-3-methyl-4-(4-(tert-pentyl)phenoxy)piperidin-1-yl)-6-oxo-5,6-dihydro-1,5-naphthyridine-2,7-dicarbonitrile (rel)] | – | 1.6 µM | 83 µM | IC50 (DGKα): 0.49 µM; EC50 ([1]; Homo sapiens, human whole blood IFN-γ, read-out: INFg Whole Blood): 0.51 µM; EC50 [2, 7]: 0.4 µM
16 | CO[C@@H]1CN(c2cc(=O)n(C)c3ccc(C#N)nc23)CC[C@H]1Oc1cccc(C(F)(F)F)c1 (single isomer, unassigned) [Example 261, (±)-trans-8-(3-methoxy-4-(3-(trifluoromethyl)phenoxy)piperidin-1-yl)-5-methyl-6-oxo-5,6-dihydro-1,5-naphthyridine-2-carbonitrile] | – | 0.2 µM | 1.4 µM | EC50 [2, 7]: 1.5 µM
17 | Cn1c(=O)c([N+](=O)[O-])c(N2CCC(Oc3cccc4[nH]ncc34)CC2)c2cc(F)ccc21 [Example 5, 4-(4-((1H-indazol-4-yl)oxy)piperidin-1-yl)-6-fluoro-1-methyl-3-nitroquinolin-2(1H)-one] | 10 µM | – | – | –
18 | CC(C)c1ccc(OC2CCN(c3c([N+](=O)[O-])c(=O)n(C)c4ccc(F)cc34)CC2)cc1 [Example 2, 6-fluoro-4-(4-(4-isopropylphenoxy)piperidin-1-yl)-1-methyl-3-nitroquinolin-2(1H)-one] | 0.34 µM | – | – | –
19 | CC1CN(c2cc(=O)n(C)c3ccc(C#N)nc23)CCC1N(C)C(=O)c1ccc(F)cc1 (single isomer, unassigned) [Example 286, N-(1-(6-Cyano-1-methyl-2-oxo-1,2-dihydro-1,5-naphthyridin-4-yl)-3-methylpiperidin-4-yl)-4-fluoro-N-methylbenzamide] | – | 5.2 µM | 9.2 µM | EC50 [2, 6]: 8.7 µM
20 | Cc1cccc(OC2CCN(c3c([N+](=O)[O-])c(=O)n(C)c4ccc(F)cc34)CC2)c1 [Example 4, 6-fluoro-1-methyl-3-nitro-4-(4-(m-tolyloxy)piperidin-1-yl)quinolin-2(1H)-one] | 0.44 µM | – | – | –
21 | CCO[C@H]1CN(c2cc(=O)n(C)c3ccc(C#N)nc23)CC[C@H]1Oc1cccc(C(F)(F)F)c1 (single isomer, unassigned) [Example 370, cis-8-(3-Ethoxy-4-(3-(trifluoromethyl)phenoxy)piperidin-1-yl)-5-methyl-6-oxo-5,6-dihydro-1,5-naphthyridine-2-carbonitrile] | – | 5.1 µM | 5.6 µM | EC50 [2, 7]: 6.7 µM
22 | CC1CN(c2c(C#N)c(=O)n(C)c3ccc(C#N)nc23)CCC1N(C)Cc1ccc(F)cc1 (single isomer, unassigned) [Example 323, 8-(4-((4-Fluorobenzyl)(methyl)amino)-3-methylpiperidin-1-yl)-5-methyl-6-oxo-5,6-dihydro-1,5-naphthyridine-2,7-dicarbonitrile] | – | 3.5 µM | 18 µM | EC50 [2, 6]: 12 µM
